Reference: US20100178243A1, “Novel method of stabilizing diagnostic and therapeutic compounds in a cationic carrier system” (MediGene AG, priority 2002, published 2010)

Tested on: A-375 Melanoma
Assay: Therapeutic efficacy of LipoCam in A-375 melanoma of nude mice
Assay type: in vivo
Conditions: iv, three times a week for three weeks, equitoxic doses; s.c. A-375 tumors; FIG. 11
Description: NMRI-nude mice were purchased from Elevage Janvier and housed in isolated ventilated cages under save environmental conditions (SPF facility, 22° C., 30-70% humidity, 12 h light/dark cycle) with food and water ad libitum. Experimental design was reviewed and approved by local government.
Tumor cells (A-375 human melanoma cell line, ATCC Nr.: CRL-1619) were grown as described in the data sheet supplied by ATCC. Tumor cells (5×10^6 in PBS) were inoculated s.c. in the right dorsal flank of mice in a volume of 50 μl on day 0.
Mice were assigned to the experimental groups (8 animals per cage), housed and handled (including monitoring of the body weight gain) at least five days before tumor inoculation (=day −6 to 0). […] Equitoxic doses of the compounds were determined in separate experiments, where toxicity was evaluated based on haematological parameters, body weight and animal clinical observations. […]
Animals were clinically monitored during the whole experiment and for at least one week after treatment was finished. […] The tumor dimensions were measured by calliper and the tumor size was calculated according to the following formula: V=πLW^2/6 (L=greatest length, W=width of perpendicular axis). […] The number of red and white blood cells and platelets were determined using an automated cell counter (Abbott Cell Dyn 3500).

## CC[C@@](O)(C(=O)[O-])c1cc2n(c(=O)c1CO)Cc1cc3ccccc3nc1-2.[Na+] [CPT-Na-Carboxylate]
  anti-tumor effect (in words): only a retardation as compared to the control group
